# What was measured:
# [1] = biological target: FAP Cyno Plasma (Macaca fascicularis, UniProt A0A2K5VGH4); assay: FAP plasma inhibition assay, cynomolgus plasma; type: biochemical; conditions: cynomolgus plasma dilution 1:40
# Experimental: Plasma (anticoagulant K2EDTA) was used as the enzyme source: Human plasma (Pooled from AZ Biobank), Mouse plasma (AZ AST Biobank), and Cynomolgus plasma (BioIVT, #NHP00PLK2FNN, lot CYN222895). 384-Well black fluotrack PS plates (Greiner 781076) were used. 20 μL diluted plasma (Cynomolgus and Human plasma dilution 1:40, Mouse plasma dilution 1:67) in buffer (PBS, 0.1% BSA) was added to 0.6 μL compounds (in DMSO). Compounds were tested using 10 CR, 3-fold dilution series from 500 nM FAC. Two replicates for each assay point were run on the same plate. A fluorescence blank read was taken before substrate addition. […] Plates were incubated for 40 min at rt in the dark. […] IC50 values were determined by plotting % inhibition versus log compound concentration.
# [2] = biological target: hFAP (M39-A757) (Homo sapiens (Human), UniProt Q12884); assay: hFAP binding assay (surface plasmon resonance); conditions: SPR, 20° C.
# Sequence of hFAP (M39-A757) (Q12884 39-757): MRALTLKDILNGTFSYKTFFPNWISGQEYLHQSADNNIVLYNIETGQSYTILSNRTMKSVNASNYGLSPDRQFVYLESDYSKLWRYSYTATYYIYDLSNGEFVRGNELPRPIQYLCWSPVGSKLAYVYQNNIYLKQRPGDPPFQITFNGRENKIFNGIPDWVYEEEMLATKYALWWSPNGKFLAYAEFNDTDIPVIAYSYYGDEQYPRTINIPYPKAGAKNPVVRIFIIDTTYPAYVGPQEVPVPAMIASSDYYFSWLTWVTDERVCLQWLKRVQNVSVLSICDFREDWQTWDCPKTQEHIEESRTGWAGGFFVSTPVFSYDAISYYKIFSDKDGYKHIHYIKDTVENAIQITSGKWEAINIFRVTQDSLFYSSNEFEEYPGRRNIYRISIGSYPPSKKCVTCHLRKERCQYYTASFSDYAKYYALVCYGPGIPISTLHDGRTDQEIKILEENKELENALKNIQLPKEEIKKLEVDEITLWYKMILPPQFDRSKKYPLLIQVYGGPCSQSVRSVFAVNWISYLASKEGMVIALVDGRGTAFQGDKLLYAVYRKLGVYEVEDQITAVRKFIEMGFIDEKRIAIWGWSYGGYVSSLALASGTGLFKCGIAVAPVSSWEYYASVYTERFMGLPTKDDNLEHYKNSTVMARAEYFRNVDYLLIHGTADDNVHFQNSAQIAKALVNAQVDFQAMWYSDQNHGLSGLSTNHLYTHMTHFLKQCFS
# Experimental: The hFAP protein used in the Examples was either commercially sourced or produced in insect cells as recombinant hFAP (Gp67-6HN-TEV-FAP (M39-A757), MW 89086.7 Da, or cd33-FAP (27-757)-6His, MW85926 Da).
# Immobilization of hFAP (M39-A757) on a CMD200M sensor chip (Xantec) was performed using standard amine coupling procedure in immobilization buffer (10 mM HEPES, 150 mM NaCl, 0.05% Tween20, pH 7.4). The surface was washed with 10 mM NaOH, IM NaCl before being activated with EDC/NHS (GE Healthcare), followed by immobilization of hFAP (in 10 mM Acetate pH 5.0). Finally, the surface was deactivated by ethanolamine. Immobilization levels of hFAP were around 4000-6000 RU. The reference spot was treated as described, omitting the injection of hFAP. Compound concentration series were injected over the immobilized protein in increasing concentrations (2-500 nM) using single cycle kinetics in running buffer (20 mM TRIS, 150 mM NaCl, 0.05% Tween20, 1% DMSO, pH 7.4). Interaction models were fitted globally to the experimental traces, enabling determination of kon, koff and Kd.
# Sequence of FAP Cyno Plasma (A0A2K5VGH4 1-745): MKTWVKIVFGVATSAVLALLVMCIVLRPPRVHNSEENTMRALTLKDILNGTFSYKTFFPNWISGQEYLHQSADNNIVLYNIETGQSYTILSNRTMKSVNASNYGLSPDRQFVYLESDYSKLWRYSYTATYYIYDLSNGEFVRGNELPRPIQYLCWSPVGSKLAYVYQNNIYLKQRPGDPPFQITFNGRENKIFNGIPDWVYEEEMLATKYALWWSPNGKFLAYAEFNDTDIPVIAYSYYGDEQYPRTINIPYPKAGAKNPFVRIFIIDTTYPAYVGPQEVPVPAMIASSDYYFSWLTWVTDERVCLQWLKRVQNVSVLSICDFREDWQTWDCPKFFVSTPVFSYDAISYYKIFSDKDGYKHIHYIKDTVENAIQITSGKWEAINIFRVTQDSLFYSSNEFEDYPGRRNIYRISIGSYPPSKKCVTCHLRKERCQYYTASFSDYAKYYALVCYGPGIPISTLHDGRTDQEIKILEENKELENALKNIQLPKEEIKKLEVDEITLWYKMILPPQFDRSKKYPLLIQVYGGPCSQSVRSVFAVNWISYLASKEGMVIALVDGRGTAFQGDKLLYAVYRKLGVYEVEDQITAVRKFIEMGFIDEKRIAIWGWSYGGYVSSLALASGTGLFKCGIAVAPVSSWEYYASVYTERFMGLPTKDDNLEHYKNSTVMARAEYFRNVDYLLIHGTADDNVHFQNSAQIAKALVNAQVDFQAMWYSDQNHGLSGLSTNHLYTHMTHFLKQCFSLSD
smiles,measurement,setting,value
N#C[C@@H]1CSCN1C(=O)CNC(=O)c1ccnc2ccc(N3CCOCC3)cc12 [(R)—N-(2-(4-Cyanothiazolidin-3-yl)-2-oxoethyl)-6-morpholinoquinoline-4-carboxamide],IC50,[1],0.4 nM
same,hFAP Binding assay k(off),[2],k(off) = 0.000046 1/s^3
same,hFAP Binding assay k(on),[2],k(on) = 4900000 M^−1s^−1

# — patent US20250368637A1, “SOLID-STATE FORMS OF N-(2-(4-CYANOTHIAZOLIDIN-3-YL)-2-OXOETHYL)-6-MORPHOLINOQUINOLINE-4-CARBOXAMIDE” (AstraZeneca AB, priority 2022, published 2025)
